In BindingDB's records for PubMed 7520908 (Janssen Research Foundation, 1994) one finds Ki data, which are given here for two molecules.

Usually Ki stands for a measure of affinity in units of concentration, obtained from inhibition or displacement. Low values mean a stronger hold on the target, high ones a looser hold on the target.

The structures appear in SMILES notation. Where “and” joins values, the source holds several entries; their conditions need not be identical. Identical values can stand only once.

Targets include D(3) dopamine receptor (Rattus norvegicus, UniProt P19020); D(2) dopamine receptor (Rattus norvegicus, UniProt P61169); D(1A) dopamine receptor (Rattus norvegicus, UniProt P18901).
Assay [1] addresses 5-hydroxytryptamine receptor 1B (Rattus norvegicus, UniProt P28564).
Assay [2] addresses 5-hydroxytryptamine receptor 1B (Homo sapiens, UniProt P28222).
The target of assay [3] is 5-hydroxytryptamine 1D receptor (Bos taurus, UniProt Q8MI13).
Sequence of 5-hydroxytryptamine 1D receptor (Q8MI13 whole entry): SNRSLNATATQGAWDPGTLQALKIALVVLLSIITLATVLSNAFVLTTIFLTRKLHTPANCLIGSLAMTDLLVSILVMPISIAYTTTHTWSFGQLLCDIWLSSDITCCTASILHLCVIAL
The target of assay [4] is T1, 5-hydroxytryptamine receptor 3A (Mus musculus, UniProt P23979).
T1 sequence (P23979 whole entry): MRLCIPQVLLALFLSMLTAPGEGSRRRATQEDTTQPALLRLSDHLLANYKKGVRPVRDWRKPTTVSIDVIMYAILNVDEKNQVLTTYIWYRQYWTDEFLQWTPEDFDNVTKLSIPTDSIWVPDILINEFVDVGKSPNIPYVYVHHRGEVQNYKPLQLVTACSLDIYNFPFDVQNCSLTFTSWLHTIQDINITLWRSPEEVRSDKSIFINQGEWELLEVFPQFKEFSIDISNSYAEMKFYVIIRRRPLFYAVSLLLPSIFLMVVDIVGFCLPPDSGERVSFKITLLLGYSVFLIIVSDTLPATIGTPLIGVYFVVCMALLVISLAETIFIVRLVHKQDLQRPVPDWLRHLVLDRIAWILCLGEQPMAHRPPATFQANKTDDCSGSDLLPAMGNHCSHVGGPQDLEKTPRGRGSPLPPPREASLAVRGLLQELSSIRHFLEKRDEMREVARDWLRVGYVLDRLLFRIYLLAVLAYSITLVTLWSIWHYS

In assay [5] the target is T2, 5-hydroxytryptamine receptor 2C (Sus scrofa, UniProt G7ZKZ7).
T2 sequence (G7ZKZ7 whole entry): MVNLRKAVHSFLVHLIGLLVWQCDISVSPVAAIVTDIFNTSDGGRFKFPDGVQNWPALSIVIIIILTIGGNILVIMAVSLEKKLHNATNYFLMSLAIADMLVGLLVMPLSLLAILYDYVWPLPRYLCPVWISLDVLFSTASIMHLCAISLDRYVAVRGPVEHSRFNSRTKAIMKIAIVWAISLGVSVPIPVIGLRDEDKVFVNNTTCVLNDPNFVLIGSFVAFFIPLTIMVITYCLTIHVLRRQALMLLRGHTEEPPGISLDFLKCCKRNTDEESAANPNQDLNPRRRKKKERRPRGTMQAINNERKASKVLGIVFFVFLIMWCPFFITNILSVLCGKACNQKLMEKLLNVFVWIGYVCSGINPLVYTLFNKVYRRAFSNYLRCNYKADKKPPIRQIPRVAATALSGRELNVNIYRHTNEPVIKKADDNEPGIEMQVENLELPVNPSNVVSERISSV

The target of assay [6] is 5-hydroxytryptamine receptor 2A (Rattus norvegicus, UniProt P14842).
Sequence of 5-hydroxytryptamine receptor 2A (P14842 whole entry): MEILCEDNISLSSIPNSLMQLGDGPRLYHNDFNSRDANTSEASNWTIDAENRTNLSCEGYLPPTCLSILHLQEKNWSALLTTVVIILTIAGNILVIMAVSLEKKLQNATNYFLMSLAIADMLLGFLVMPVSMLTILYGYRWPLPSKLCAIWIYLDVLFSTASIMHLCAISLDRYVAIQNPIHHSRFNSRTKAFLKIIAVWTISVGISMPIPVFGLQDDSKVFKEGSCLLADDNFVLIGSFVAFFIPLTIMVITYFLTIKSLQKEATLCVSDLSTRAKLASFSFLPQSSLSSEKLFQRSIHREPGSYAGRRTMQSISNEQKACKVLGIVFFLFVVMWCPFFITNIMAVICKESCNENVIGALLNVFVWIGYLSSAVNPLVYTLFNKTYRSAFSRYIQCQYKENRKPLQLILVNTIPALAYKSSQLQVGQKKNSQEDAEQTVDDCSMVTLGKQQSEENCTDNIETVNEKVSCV

Sequence of D(2) dopamine receptor (P61169 whole entry): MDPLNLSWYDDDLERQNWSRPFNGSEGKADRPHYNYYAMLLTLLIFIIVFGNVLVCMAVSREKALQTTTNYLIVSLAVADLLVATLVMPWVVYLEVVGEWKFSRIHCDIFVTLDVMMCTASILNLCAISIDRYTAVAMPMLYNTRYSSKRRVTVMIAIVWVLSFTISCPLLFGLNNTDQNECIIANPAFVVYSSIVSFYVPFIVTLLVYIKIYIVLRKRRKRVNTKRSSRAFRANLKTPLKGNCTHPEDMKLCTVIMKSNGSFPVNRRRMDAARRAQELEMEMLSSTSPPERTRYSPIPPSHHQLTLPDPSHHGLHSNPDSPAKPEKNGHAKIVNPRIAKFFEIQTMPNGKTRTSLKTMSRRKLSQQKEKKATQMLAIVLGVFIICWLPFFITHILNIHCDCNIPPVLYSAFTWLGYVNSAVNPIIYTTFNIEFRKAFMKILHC
Sequence of 5-hydroxytryptamine receptor 1B (Rattus norvegicus, UniProt P28564) (P28564 whole entry): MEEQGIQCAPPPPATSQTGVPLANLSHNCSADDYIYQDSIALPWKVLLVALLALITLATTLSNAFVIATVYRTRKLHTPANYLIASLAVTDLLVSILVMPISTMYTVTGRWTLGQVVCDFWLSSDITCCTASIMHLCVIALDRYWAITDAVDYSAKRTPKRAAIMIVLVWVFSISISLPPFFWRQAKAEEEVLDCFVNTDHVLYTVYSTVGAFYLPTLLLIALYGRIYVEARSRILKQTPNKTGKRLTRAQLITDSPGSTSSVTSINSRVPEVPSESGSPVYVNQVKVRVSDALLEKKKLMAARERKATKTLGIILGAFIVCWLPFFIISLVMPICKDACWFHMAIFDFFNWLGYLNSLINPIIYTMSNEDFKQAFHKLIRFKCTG
Sequence of D(3) dopamine receptor (P19020 whole entry): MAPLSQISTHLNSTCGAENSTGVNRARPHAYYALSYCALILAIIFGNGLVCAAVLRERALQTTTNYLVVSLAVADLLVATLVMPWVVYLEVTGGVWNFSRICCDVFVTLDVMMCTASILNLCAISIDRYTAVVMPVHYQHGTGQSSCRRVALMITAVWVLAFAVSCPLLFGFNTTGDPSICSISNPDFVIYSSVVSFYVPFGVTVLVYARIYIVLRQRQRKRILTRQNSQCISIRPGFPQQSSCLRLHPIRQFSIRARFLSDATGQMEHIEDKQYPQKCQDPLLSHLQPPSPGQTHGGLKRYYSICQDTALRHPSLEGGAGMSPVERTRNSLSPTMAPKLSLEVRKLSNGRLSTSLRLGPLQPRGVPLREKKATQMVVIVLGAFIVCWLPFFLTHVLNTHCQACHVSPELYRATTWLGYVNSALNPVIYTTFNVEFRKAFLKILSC
Sequence of 5-hydroxytryptamine receptor 1B (Homo sapiens, UniProt P28222) (P28222 whole entry): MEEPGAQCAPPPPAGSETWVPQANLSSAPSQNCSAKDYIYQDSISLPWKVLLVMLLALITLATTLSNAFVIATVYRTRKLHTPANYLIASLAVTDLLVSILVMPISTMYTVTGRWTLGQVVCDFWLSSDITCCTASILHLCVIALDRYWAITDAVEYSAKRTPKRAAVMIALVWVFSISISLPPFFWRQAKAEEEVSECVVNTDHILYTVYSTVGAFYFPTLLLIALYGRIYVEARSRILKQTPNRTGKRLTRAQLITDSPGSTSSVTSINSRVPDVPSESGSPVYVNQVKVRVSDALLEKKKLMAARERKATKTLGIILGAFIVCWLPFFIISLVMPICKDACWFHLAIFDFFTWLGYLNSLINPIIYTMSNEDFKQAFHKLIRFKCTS
Sequence of D(1A) dopamine receptor (P18901 whole entry): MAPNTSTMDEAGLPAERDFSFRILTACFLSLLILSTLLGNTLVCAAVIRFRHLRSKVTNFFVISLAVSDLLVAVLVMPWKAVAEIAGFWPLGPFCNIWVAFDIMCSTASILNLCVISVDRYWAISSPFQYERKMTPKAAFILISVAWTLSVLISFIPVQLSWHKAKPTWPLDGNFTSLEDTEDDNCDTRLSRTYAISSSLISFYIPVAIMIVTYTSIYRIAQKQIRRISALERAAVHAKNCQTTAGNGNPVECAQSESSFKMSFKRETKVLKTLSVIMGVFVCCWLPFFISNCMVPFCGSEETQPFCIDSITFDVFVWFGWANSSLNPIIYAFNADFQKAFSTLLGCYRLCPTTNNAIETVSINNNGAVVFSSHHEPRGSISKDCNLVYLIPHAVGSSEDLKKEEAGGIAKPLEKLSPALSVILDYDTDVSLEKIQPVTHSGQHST

As for `Cc1nc2n(c(=O)c1CCN1CCC(c3noc4cc(F)ccc34)CC1)CCCC2` [3-{2-[4-(6-Fluoro-benzo[d]isoxazol-3-yl)-piperidin-1-yl]-ethyl}-2-methyl-6,7,8,9-tetrahydro-pyrido[1,2-a]pyrimidin-4-one(risperidone)], in assay [1], affinity was put at a Ki of 4000 nM.

As for `Cc1nc2n(c(=O)c1CCN1CCC(c3noc4cc(F)ccc34)CC1)CCCC2O` (stereo not given) [9-OH-risperidone], the inhibitory constant (Ki) in [2] was 23 nM; in assay [3], 117 nM; on D(3) dopamine receptor it was 13 nM; in assay [1] it was 3500 nM; in assay [4], more than 10000 nM; at D(2) dopamine receptor, 3.5 nM and 3.9 nM and 6.7 nM and 4.6 nM. In addition, the Ki worked out at 510 nM on D(1A) dopamine receptor, 47 nM in assay [5] and 0.22 nM in [6].
